Test results: PMC8833187 (Proceedings of the National Academy of Sciences of the …, 2022)

Tests used:
[1] = tested on: CaM/4Ca^2+ with R1 labels at A17C–R1 and A128C–R1; conditions: labelled versus unlabelled CaM/4Ca^2+; cited from earlier work
[2] = tested on: CaM/4Ca^2+; test: Combined time-resolved DEER and ssNMR: binding pathway of M13 to CaM/4Ca^2+; design: species or system Human

τ, conformational rearrangement of state B to state C [2]: 7 to 18 ms
τ, state A* to collapsed intermediate B [2]: 1.5 to 2.5 ms
timescale τ, state A converted to final compact complex state C ([2]; abstract): ≤ 600 μs
Sequence: KRRWKKNFIAVSAANRFKKISSSGAL [M13]
reduction of affinity for M13 by R1 labels at A17C–R1 and A128C–R1 [1]: about 2.5 fold
